Reference: patent publication US10166229B2, “Compounds and methods for the treatment of cancer” (The Board of Trustees of the University of Illinois, priority 2005, dated 2019)
pEC50, pIC50: −log10 of the molar value. Where “and” joins values, the source holds several entries; their conditions need not be identical. Equal values may be shown once. Entries after “also recorded” stand apart in the source; their conditions may differ. Read-outs that look alike come from different tables or passages of the source.

Legend:
procaspase-3 [1] = molecular target: T1, procaspase-3 (Homo sapiens (Human), UniProt P42574); test: In vitro activation of purified procaspase-3 (activation curves, Ac-DEVD-pNA); assay type: biochemical; conditions: for pEC50: read-out: EC50 for activation of procaspase-3
Experimental: Activation curves. […] The plate was read every 2 minutes at 405 nm for 2 hours in a Spectra Max Plus 384 well plate reader. The slope of the linear portion for each well was determined and the fold increase in activation from non-treated control wells was calculated. […]

procaspase-3 mutant DDA = procaspase-3 mutant DDA (Homo sapiens, UniProt P42574, D181A); test: Activation of safety catch mutant procaspase-3 (DDA); assay type: biochemical
Source text: (§1) Safety catch mutations. The DDD procaspase-3 safety catch (SEQ ID NO:1; SEQ ID NO:2; SEQ ID NO:9) was mutated to ADD (SEQ ID NO:3, SEQ ID NO:4, SEQ ID NO:10), DAD (SEQ ID NO:5, SEQ ID NO:6, SEQ ID NO:11) and DDA (SEQ ID NO:7, SEQ ID NO:8, SEQ ID NO:12) using the quickchange strategy with the following primers, gacagacagtggtgttgCGgatgacatggcgtgtcataaaatacc (SEQ ID NO:13), gacagacagtggtgttgatgCtgacatggcgtgtcataaaatacc (SEQ ID NO:14) and gacagacagtggtgttgatgatgCcatggcgtgtcataaaatacc (SEQ ID NO:15) respectively. See also FIG. 9 and FIG. 10. Mutated bases are underlined and capitalized. All mutant plasmids were sequenced to ensure proper sequence throughout the gene. All mutant plasm ids were expressed exactly as wild-type procaspase-3 as described above. […] The plate was then incubated for 12 hours at 37° C. 10 μL of a 2 mM solution of Ac-DEVD-pNA (SEQ ID NO: 28) in caspase assay buffer was then added to each well. The plate was read every 2 minutes at 405 nm for 2 hours in a Spectra Max Plus 384 well plate reader. The slope of the linear portion for each well was determined and the fold increase in activity for each mutant was calculated.

procaspase-3 mutant ADD = test: Activation of safety catch mutant procaspase-3 (ADD); assay type: biochemical, Homo sapiens
Source text: as §1

active caspase-3 = active caspase-3 (Homo sapiens (Human), UniProt P42574); test: Effect on fully processed caspase-3 enzyme; assay type: biochemical
Experimental: Activation curves. The dose dependence of procaspase-3 activators was determined by adding various concentrations of compound to 90 μL of a 50 ng/mL procaspase-3, active caspase-3, procaspase-7 or active caspase-7 in caspase assay buffer in a 96-well plate. The plate was then incubated for 12 hours at 37° C. 10 μL of a 2 mM solution of Ac-DEVD-pNA (SEQ ID NO: 28) in caspase assay buffer was then added to each well. The plate was read every 2 minutes at 405 nm for 2 hours in a Spectra Max Plus 384 well plate reader. The slope of the linear portion for each well was determined and the fold increase in activation from non-treated control wells was calculated.

procaspase-3 [2] = molecular target: T1, procaspase-3; test: PAC-1 activation gel (Western blot of procaspase-3 cleavage); assay type: biochemical
Experimental: Procaspase-3 was expressed and isolated exactly as above. Procaspase-3 was diluted to about 50 μg/mL in caspase assay buffer. […] After this incubation, an equal volume of load buffer (150 mM NaCl, 50 mM Tris, 2% SDS, 20% glycerol, pH 8.0) was added to each procaspase-3 sample. All samples were then stored at −80° C. until the time-course was completed. All samples were then incubated at 95° C. for 5 minutes and run on a 12% SDS-PAGE gel. Proteins were then transferred to nitrocellulose paper overnight. Blots were washed in TTBS (150 mM NaCl, 50 mM Tris, 0.1% Tween-20, pH 7.4) and blocked with a 10% milk solution for 2 hours. Blots were then incubated in a 1:5000 dilution of anti-Penta His Alexa Fluor 647 antibody for 2 hours. The blot was then washed with TTBS and scanned on a Typhoon fluorescence scanner (Amersham Biosciences, Sunnyvale Calif.).

HL-60 cells [3] = test: Cell death induction IC50 (MTS) in HL-60; assay type: cell-based, human
[4] = system: white blood cells derived from the bone marrow of a healthy human donor; test: Cell death in normal white blood cells; assay type: cell-based; conditions: relative to cancer cell lines
[5] = system: cells from adjacent non-cancerous tissue; test: Cell death in cells from adjacent non-cancerous colon tissue; assay type: cell-based, human
Source text: To test this direct, small molecule-mediated procaspase-3 activation strategy in clinical isolates of cancer, we obtained freshly resected colon tumors (together with adjacent non-cancerous tissue) from 18 patients from Carle Foundation Hospital (Urbana, Ill.).

[6] = system: white blood cells from bone marrow, Hs888Lu, MCF-10A, Hs578Bst; test: Cell death in four non-cancerous cell types; assay type: cell-based
HL-60 cells [7] = test: Condensed chromatin staining (Hoechst); assay type: cell-based, human; conditions: HL-60, 20 h, 100 μM
Experimental: The cells were then washed in PBS buffer followed by the addition of ice-cold 100% ethanol. The cells were fixed overnight at 4° C. Fixed cells were incubated with 2 μg/mL Hoechst-33258 for 30 minutes at room temperature. A drop of cells was then added to a microscope slide and covered with a No. 1 thickness coverslip.

[8] = system: NCI-H226 (lung cancer) cells injected i.v.; test: NCI-H226 i.v. injection lung model, oral gavage; assay type: in vivo, mice; conditions: 100 mg/kg oral gavage days 1-4 and 7-11, 28 days
procaspase-3 [9] = molecular target: T1, procaspase-3; test: Western blot of in vitro procaspase-3 activation by DX compounds; assay type: biochemical; conditions: 50 micromolar compound, about 35 nanomolar procaspase-3, 8 hr
Experimental: Certain compounds were also tested for the ability to effect in vitro activation of procaspase-3.

HL-60 cells [10] = test: Apoptosis induction assay in HL-60 cells, 72 hrs (Table 6); assay type: cell-based; conditions: Homo sapiens
Experimental: Compounds DX1-DX17 were tested using the HL-60 cell line for the ability to effect apoptosis, and IC50 values were determined. Activity levels of compounds from assays of 72 hrs duration with HL-60 cells are shown in Table 6 and along with structures in FIG. 12.

procaspase-7 = procaspase-7 (Homo sapiens (Human), UniProt P55210); conditions: read-out: EC50 for activation of procaspase-7
[11] = system: MCF-7, breast cancer cells; test: Cell death IC50 in MCF-7; conditions: Homo sapiens, MCF7, read-out: IC50 for death induction, MCF-7
Experimental: Determination of IC50 values in various cell lines. 50 μL of media containing various concentrations of PAC-1 or etoposide was added to each well of a 96-well plate except control wells, which contained only DMSO. […] The plates were then incubated at 37° C. for approximately one hour until the colored product formed.

T1 sequence (P42574 whole entry): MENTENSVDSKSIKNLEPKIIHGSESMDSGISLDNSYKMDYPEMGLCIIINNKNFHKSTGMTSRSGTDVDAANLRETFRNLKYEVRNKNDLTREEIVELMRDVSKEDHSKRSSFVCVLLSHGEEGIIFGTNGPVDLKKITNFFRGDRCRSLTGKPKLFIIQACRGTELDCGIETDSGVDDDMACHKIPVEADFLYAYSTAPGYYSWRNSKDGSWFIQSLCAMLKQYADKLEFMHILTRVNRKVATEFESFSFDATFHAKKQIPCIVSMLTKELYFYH
Chain of procaspase-7 (P55210 whole entry): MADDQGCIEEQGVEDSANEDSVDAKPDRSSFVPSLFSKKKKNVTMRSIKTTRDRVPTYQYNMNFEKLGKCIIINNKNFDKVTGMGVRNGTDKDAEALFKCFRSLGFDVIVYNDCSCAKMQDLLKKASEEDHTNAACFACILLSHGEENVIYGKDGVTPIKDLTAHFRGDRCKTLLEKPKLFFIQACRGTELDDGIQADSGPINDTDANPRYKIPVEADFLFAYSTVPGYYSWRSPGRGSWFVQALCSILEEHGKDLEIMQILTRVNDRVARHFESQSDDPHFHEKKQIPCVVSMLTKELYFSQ
Chain of procaspase-3 mutant DDA (P42574 29-175 limits assumed): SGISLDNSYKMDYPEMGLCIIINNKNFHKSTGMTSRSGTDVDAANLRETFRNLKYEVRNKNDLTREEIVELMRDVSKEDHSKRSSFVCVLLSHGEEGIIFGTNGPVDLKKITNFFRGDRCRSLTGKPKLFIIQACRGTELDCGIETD
Chain of procaspase-3 mutant DDA (P42574 176-277 D181A limits assumed): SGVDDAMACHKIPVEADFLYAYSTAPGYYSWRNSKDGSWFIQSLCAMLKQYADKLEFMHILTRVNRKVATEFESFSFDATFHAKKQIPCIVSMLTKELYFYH
Chain of active caspase-3 (P42574 29-175): as the sequence (P42574 29-175 limits assumed) above
Chain of active caspase-3 (P42574 176-277): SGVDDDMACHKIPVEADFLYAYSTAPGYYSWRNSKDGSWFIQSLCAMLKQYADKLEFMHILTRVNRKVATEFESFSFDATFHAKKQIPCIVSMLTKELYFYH

C=CCc1cccc(/C=N/NC(=O)CN2CCN(Cc3ccccc3)CC2)c1O [PAC-1]
procaspase-3 activation in vitro (in words) (procaspase-3 [1]): activate procaspase-3 in vitro | Activity (direct activation of purified procaspase-3 in vitro) (procaspase-3 [1]; Table 2): Active | pEC50 (procaspase-3 [1]; in vitro): ~6.66 | pEC50 (procaspase-3 [1]; wild type procaspase-3 (DDD)): 6.66 | pEC50 (procaspase-3 mutant DDA): 3.95 | pEC50 (procaspase-3 mutant ADD): 3.88 | effect on catalytic activity of fully processed caspase-3 enzyme (active caspase-3): no effect | effectiveness in procaspase-3 cleavage assay (procaspase-3 [2]; 5 μM): effective | time to cleavage generating the p19 fragment (procaspase-3 [2]; 100 μM PAC-1): ≤ 1 h | cleavage (processing) of procaspase-3 (procaspase-3 [2]; 100 μM PAC-1, after 4 hours): > 50% | cell death induction in cancer cells in culture (in words) (HL-60 cells [3]): induce death in cancer cells | IC50 (HL-60 cells [3]; Homo sapiens, HL-60, Table 3, read-out: IC50 (μM) for death induction in HL-60 cells): 0.92 µM | potency/toxicity in normal white blood cells [4]: comparatively less toxic; also recorded: markedly less potent | pIC50 ([5]; Homo sapiens, read-out: PAC-1, IC50, Normal (adjacent non-cancerous tissue), per patient, 18 patients): 5.00 to 5.30 | pIC50 ([5]; read-out: PAC-1, IC50, Normal (adjacent non-cancerous tissue), per patient, 18 patients): 5.16 and 5.20 and 5.13 and 5.25 and 5.18 and 5.00 and 5.23 and 5.26 and 5.12 and 5.22 and 5.30 and 5.29 and 5.19 and 5.17 and 5.01 and 5.02 | pIC50 [6]: 5.07 to 5.49 | chromatin condensation (HL-60 cells [7]): significant chromatin condensation | lung tumor mass, NCI-H226 i.v. injection model [8]: clear difference; also recorded: almost no visible gray matter | in vitro activation of procaspase-3 (Western blot) relative to control (procaspase-3 [9]): substantial activity levels | pIC50 (HL-60 cells [10]): 5.55 | pEC50 (procaspase-7): 5.35 | pIC50 [11]: < 4.12
